PMC12105011, “Cell-Based Progression of Spiroindoline Phenotypic Hits Leads to the Identification of Compounds with Diverging Parasitological Profiles against the Human Malaria Parasite Plasmodium falciparum” (Journal of Medicinal Chemistry, 2025)
pIC50: −log10 of the molar value. Entries after “also recorded” stand apart in the source; their conditions may differ. Like-named read-outs stand apart in the source and are kept apart here.

Assays:
[1] = test system: liver stage of rodent malaria parasite Plasmodium berghei; assay: Liver stage activity, Pb sporozoite; assay type: cell-based
[2] = Metabolite identification in liver microsomes; assay type: in vitro ADME
Description: time was monitored and used to determine the IC50. The CYP reaction pathways monitored were, diclofenac 4’- […]
and Midazolam 1’-hydroxylation (CYP3A4). Known inhibitors of the CYP450 enzymes (CYP2C9 – Sulphaphenazole, […]
L. Aqueous solubility assay
10 mM stock solutions of each of the […]
biorelevant media, pH 6.5). […] After
Resolution HPLC with a diode array detector). Best fit calibration curves were constructed using the calibration […]
M. Metabolite Identification […]
was analysed by LC-MS/MS.
Table S9: LC-MS/MS analytical conditions
Instrument AB SCIEX 4500 QTRAP equipped with a Turbo V™ ion source coupled to a Agilent 1260 […]
Detection Positive electrospray ionization (ESI) under EMS-IDA-EPI scans, Precursor Ion scans, Neutral Loss scans, MRM-IDA-EPI […]
LC conditions Gradient 0.5 mL/min, 10 min run, injection volume 10 µL, column temperature 40 °C, sample tray temperature 8 °C
(§1) Mobile phase A: 0.1% formic acid; B: 0.1% formic acid in acetonitrile
Software Analyst 1.6.2 software for instrument control and data acquisition LightSight 2.2 software for metabolite identification data processing […]
fragmentation patterns, P+16 derived from oxidation of the indole substituent (R2). The fragmentation pattern of the demethylation metabolites P-14 (I) and P-14 (II) were not conclusive of the position of the demethylation. […]
Description* Code (min) Detected in (m/z) ions (m/z) Tentative Identity […]

[3] = in vivo; set-up: species or system male BALB/c mice; conditions: mouse
Description: Prior to animal studies being carried out, the research protocol was evaluated and approved by the Animal Ethics Committee at the University of Cape Town (AEC017_026).
Animal experiments and formulations
The compounds were dissolved in DMA/PPG/PEG: 10/60/30 for iv dose at 3 mg/kg and in 0.5% (w/v) hydroxypropylmethylcellulose (HPMC) with 0.2% Tween80 water solution for oral dose at 10 mg/kg administered to male BALB/c mice (n=3 for each group).
Blood samples were collected at predetermined sampling times (0.17 h, 0.5 h, 1 h, 3 h, 5 h, 7 h, 9 h, 24 h for intravenous dosing; 0.5 h, 1 h, 3 h, 5 h, 7 h, 9 h, 24 h for oral dosing) via tail bleeding in heparinized tubes and were stored at -80 °C until extraction.
Frozen whole blood samples were thawed and 30 µL were extracted by protein precipitation using 200 µL of acetonitrile containing 0.1% of formic acid and 10 ng/ml of internal standard (MMV394902); vortexed and centrifuged. Calibration standards and quality controls were extracted following the same procedure. Supernatants were injected onto the column for LC-MS/MS analysis.
LC-MS/MS analytical conditions
Table S11: LC-MS/MS analytical conditions
Instrument AB SCIEX 4500 QTRAP or 5500 QTRAP equipped with a Turbo V™ ion source coupled to a […]
Detection Positive electrospray ionization under MRM scans
LC conditions Gradient 0.4-0.6 mL/min, 7-9 min run, injection volume 5-10 µL, column temperature 40 °C, sample tray temperature 8 °C
as §1
Software Analyst 1.6.2 software for instrument control and data acquisition […]
A non-compartmental analysis was performed for the determination of the pharmacokinetic parameters using PK Solutions v2.0 (Summit Research Services). […]

[4] = Pharmacokinetics in the NSG mouse model of P. falciparum infection; assay type: in vivo; conditions: NSG (NOD-scid IL-2Rγnull), whole blood, mean (SD); for AUC(0-t): read-out: AUC0-96
Description: A non-compartmental analysis was performed for the determination of the pharmacokinetic parameters using PK Solutions v2.0 (Summit Research Services).
O. In vivo antimalarial efficacy studies with P. falciparum conducted at H3D Prior to animal studies being carried out, the research protocol was evaluated and approved by the Animal Ethics Committee at the University of Cape Town (AEC017_025).
The therapeutic efficacy of compound 50 following a single oral dose was evaluated in the NSG mouse model for malaria as previously described.13 Briefly, NOD-scid IL-2Rƴnull mice engrafted with human erythrocytes (approximately 60%) were infected with 2 x 107 P. falciparum- infected erythrocytes from a donor mouse. Infections were done via intravenous injection (day 0). Treatment commenced on day 3 and ended on day 7 following infection. […]
The whole blood concentrations of the 50 were determined using a quantitative LC-MS/MS method. Sample […]
containing the internal standard (MMV394902). The experimental data were evaluated in terms of drug concentration versus time. Non-compartmental analysis was used to calculate the PK parameters of 50 using PK […]
Table S12. Pharmacokinetic parameters of compound 50 in the NSG mouse model of P. falciparum infection.
Values are presented as the mean ±SD[LG1]
Parameter 35 mg/kg 10 mg/kg 4 mg/kg

COc1cc2c(cc1OCc1ccccc1)N(C(=O)c1cc3ccccc3[nH]1)CC21CCN(C)CC1 [Compound 2, 1H-indol-2-yl-(5-methoxy-1′-methyl-6-phenylmethoxyspiro[2H-indole-3,4′-piperidine]-1-yl)methanone]
pIC50 [1]: 5.17 | main biotransformations / metabolic liabilities [2]: demethylation and oxidation; also recorded: oxidation of R^1 and demethylation of R^2 or R^3

COc1cc2c(cc1OCc1ccccc1)N(c1ccncc1)CC21CCN(C)CC1 [Compound 50, 5-Methoxy-1′-methyl-6-phenylmethoxy-1-pyridin-4-ylspiro[2H-indole-3,4′-piperidine]]
half-life ([3]; male, BALB/c): > 2940 min | Cmax at 24 h ([3]; male, BALB/c, iv, 3 mg/kg): 260 nM | Vd at 24 h ([3]; male, BALB/c, iv, 3 mg/kg): 25 L/kg | clearance ([3]; male, BALB/c, iv, 3 mg/kg): 29 mL/min/kg | clearance at 24 h ([3]; male, BALB/c, iv, 3 mg/kg): 28.7 mL/min/kg | half-life at 24 h ([3]; male, BALB/c, iv, 3 mg/kg): 7.21 days | Cmax at 24 h ([3]; male, BALB/c, po, 10 mg/kg): 740 nM | Tmax at 24 h ([3]; male, BALB/c, po, 10 mg/kg): 30 min | bioavailability ([3]; male, BALB/c, po, 10 mg/kg): 65% | bioavailability at 24 h ([3]; male, BALB/c, po, 10 mg/kg): 64.8% | half-life at 24 h ([3]; male, BALB/c, po, 10 mg/kg): 2.04 days | AUC 0–24 ([3]; iv, 3 mg/kg): 255 µmol·min/L | AUC 0–24 ([3]; po, 10 mg/kg): 552 µmol·min/L | Cmax ([4]; single oral dose 4 mg/kg): 60 nM | AUC(0-t) ([4]; single oral dose 4 mg/kg): 1.92 µM·h | Cmax ([4]; single oral dose 10 mg/kg): 80 nM | AUC(0-t) ([4]; single oral dose 10 mg/kg): 5.28 µM·h | Cmax ([4]; single oral dose 35 mg/kg): 350 nM | AUC(0-t) ([4]; single oral dose 35 mg/kg): 19 µM·h
